Laboratory results reported in the NIST ThermoML archive (doi:10.1021/acs.jced.5b00251).

Assay: refractive index (other wavelength) (dimensionless)
Settings: 101 kPa, Liquid, Standard Abbe refractometry

c1ccc2c(c1)CCCC2 [1,2,3,4-tetrahydronaphthalene]
refractive index
Settings | 293.15 K | 298.15 K | 303.15 K | 308.15 K | 313.15 K | 318.15 K
Wavelength=436.1 nm | 1.56232 | 1.5598 | 1.55719 | 1.55471 | 1.55219 | 1.54974
Wavelength=513.9 nm | 1.54872 | 1.54625 | 1.54373 | 1.5413 | 1.53886 | 1.53647
Wavelength=589.3 nm | 1.5412 | 1.53875 | 1.53628 | 1.53389 | 1.53148 | 1.52912
Wavelength=633.2 nm | 1.53808 | 1.53565 | 1.53321 | 1.53083 | 1.52844 | 1.52629
Wavelength=657.2 nm | 1.53694 | 1.53452 | 1.53208 | 1.52971 | 1.52732 | 1.52495

CC(C)Cc1ccccc1 [(2-methylpropyl)benzene]
refractive index
Settings | 293.15 K | 298.15 K | 303.15 K | 308.15 K | 313.15 K | 318.15 K
Wavelength=436.1 nm | 1.50429 | 1.50172 | 1.49916 | 1.49659 | 1.494 | 1.49143
Wavelength=513.9 nm | 1.4927 | 1.49023 | 1.48772 | 1.48521 | 1.48268 | 1.48023
Wavelength=589.3 nm | 1.48654 | 1.48406 | 1.4815 | 1.47904 | 1.47657 | 1.47409
Wavelength=633.2 nm | 1.48377 | 1.48132 | 1.47888 | 1.47643 | 1.47397 | 1.47151
Wavelength=657.2 nm | 1.48286 | 1.48035 | 1.47798 | 1.47555 | 1.47309 | 1.47063

CCCCCCCCCCCC [dodecane]
refractive index
Settings | 293.15 K | 298.15 K | 303.15 K | 308.15 K | 313.15 K | 318.15 K
Wavelength=436.1 nm | 1.43105 | 1.42886 | 1.42666 | 1.42445 | 1.42223 | 1.42001
Wavelength=513.9 nm | 1.42506 | 1.42291 | 1.42074 | 1.41857 | 1.41638 | 1.41418
Wavelength=589.3 nm | 1.42171 | 1.41957 | 1.41742 | 1.41527 | 1.41309 | 1.41093
Wavelength=633.2 nm | 1.42031 | 1.41815 | 1.41601 | 1.41385 | 1.41171 | 1.40943
Wavelength=657.2 nm | 1.41993 | 1.41777 | 1.41564 | 1.4135 | 1.41134 | 1.4092
